By IC50 is commonly meant the concentration needed to halve the response being measured. The inhibition is the percentage by which the read-out fell short of the control. For orientation: AUC(0-inf) means the area under the concentration-time curve extrapolated to infinity. As a reminder, the Cmax is the peak of the concentration-time curve. Usually bioavailability stands for dose-corrected exposure relative to a reference, in per cent. The term clearance denotes the rate of elimination divided by the concentration. By half-life is commonly meant the time needed for the level to fall by half in the phase considered. As a reminder, the Tmax is the time at which the peak concentration occurs.

Here are results for 37 compounds from ChEMBL document CHEMBL5360563, “Discovery of a potent and selective allosteric inhibitor targeting the SHP2 tunnel site for RTK-driven cancer treatment” (Eur J Med Chem, 2023).

In data set [1] the target is T1, Tyrosine-protein phosphatase non-receptor type 11 (Homo sapiens, UniProt Q06124).
T1 sequence (Q06124 whole entry): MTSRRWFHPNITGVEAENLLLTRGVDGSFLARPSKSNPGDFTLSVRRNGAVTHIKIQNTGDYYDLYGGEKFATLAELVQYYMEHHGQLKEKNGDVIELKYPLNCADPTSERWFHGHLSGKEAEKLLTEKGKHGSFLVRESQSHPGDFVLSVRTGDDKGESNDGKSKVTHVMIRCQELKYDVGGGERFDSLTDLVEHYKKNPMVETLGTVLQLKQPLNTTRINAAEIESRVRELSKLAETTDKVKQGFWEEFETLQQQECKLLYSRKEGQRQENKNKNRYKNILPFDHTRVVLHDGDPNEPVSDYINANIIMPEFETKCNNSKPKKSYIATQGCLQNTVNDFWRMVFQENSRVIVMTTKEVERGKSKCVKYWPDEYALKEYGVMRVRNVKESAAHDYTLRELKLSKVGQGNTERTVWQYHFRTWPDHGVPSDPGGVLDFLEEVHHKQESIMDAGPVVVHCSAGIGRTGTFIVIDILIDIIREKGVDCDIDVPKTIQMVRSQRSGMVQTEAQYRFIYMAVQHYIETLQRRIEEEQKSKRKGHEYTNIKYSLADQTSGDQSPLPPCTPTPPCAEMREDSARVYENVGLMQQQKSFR
The data set can be described thus: Inhibition of pIRS-1 peptide activated human wild type SHP2 FL (Met1 to Leu525 residues) using DiFMUP as substrate preincubated for 30 mins followed by substrate addition and measured after 30 mins by microplate reader method.

Data set [2] deals with Dual specificity tyrosine-phosphorylation-regulated kinase 1B (Homo sapiens) (UniProt Q9Y463). The note with it: dose 1000.0 nM.
Description: Inhibition of DYRK1B (unknown origin) at 1000 nM by KINOMEscan assay relative to control
Data set [3] can be described thus: AUC (0 to infinity) in Sprague-Dawley rat at 5 mg/kg, iv and measured upto 24 hrs by LC-MS/MS analysis. Format: ADME, organism-based. Further details: dose 5 mg/kg, time < 24 hrs, route iv. The note with it: in vivo.
Data set [4] can be described thus: Cmax in Sprague-Dawley rat at 5 mg/kg, iv and measured upto 24 hrs by LC-MS/MS analysis. Set-up: dose 5 mg/kg, time < 24 hrs, route iv. Format: ADME, organism-based. The note with it: in vivo.
Data set [5] has as its target T2, TGF-beta receptor type-1 (Homo sapiens) (UniProt P36897).
T2 sequence (whole entry): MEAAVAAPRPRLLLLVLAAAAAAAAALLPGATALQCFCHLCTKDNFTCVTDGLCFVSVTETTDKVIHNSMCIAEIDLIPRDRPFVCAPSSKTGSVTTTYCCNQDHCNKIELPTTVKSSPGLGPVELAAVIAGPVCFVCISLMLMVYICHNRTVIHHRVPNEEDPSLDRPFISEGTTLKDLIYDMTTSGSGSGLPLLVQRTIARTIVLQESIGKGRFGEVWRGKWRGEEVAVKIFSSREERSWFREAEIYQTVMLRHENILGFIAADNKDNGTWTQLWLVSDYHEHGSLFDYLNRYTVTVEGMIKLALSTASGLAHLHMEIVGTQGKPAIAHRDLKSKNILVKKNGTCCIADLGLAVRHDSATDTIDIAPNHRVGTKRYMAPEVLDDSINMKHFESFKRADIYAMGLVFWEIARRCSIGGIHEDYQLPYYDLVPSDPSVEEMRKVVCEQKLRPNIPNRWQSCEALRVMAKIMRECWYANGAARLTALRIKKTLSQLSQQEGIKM
Particulars: dose 1000.0 nM.
Description: Inhibition of TGFBR1 (unknown origin) at 1000 nM by KINOMEscan assay relative to control

The nature of data set [6]: Oral bioavailability in Sprague-Dawley rat at 5 mg/kg and measured upto 24 hrs by LC-MS/MS analysis. Format: ADME, organism-based. Particulars: in vivo.
Data set [7] can be described thus: Clearance in Sprague-Dawley rat at 5 mg/kg, iv and measured upto 24 hrs by LC-MS/MS analysis. The format is ADME, organism-based. Particulars: in vivo.
The target of data set [8] is T3, Serine/threonine-protein kinase STK11 (Homo sapiens) (UniProt Q15831).
T3 sequence (whole entry): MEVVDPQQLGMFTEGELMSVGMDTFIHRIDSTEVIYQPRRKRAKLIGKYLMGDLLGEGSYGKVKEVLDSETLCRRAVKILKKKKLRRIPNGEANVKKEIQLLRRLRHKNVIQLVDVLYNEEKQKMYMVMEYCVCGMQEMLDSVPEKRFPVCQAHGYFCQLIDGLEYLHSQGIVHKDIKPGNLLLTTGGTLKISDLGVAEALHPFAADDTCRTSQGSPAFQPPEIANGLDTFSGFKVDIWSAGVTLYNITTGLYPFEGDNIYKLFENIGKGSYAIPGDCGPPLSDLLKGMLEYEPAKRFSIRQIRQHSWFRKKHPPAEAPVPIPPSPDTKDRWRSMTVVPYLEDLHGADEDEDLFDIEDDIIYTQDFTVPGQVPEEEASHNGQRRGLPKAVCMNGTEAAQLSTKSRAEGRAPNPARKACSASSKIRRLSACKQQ
The note with it: dose 1000.0 nM.
Description: Inhibition of LKB1 (unknown origin) at 1000 nM by KINOMEscan assay relative to control

Data set [9] is described as follows: Half life in Sprague-Dawley rat at 5 mg/kg, iv and measured upto 24 hrs by LC-MS/MS analysis. The format is ADME, organism-based. The note with it: in vivo.
Data set [10] is described as follows: Volume of distribution at steady state in Sprague-Dawley rat at 5 mg/kg, iv and measured upto 24 hrs by LC-MS/MS analysis. The format is ADME, organism-based. The note with it: in vivo, read-out: Vdss.
The target of data set [11] is T1, Tyrosine-protein phosphatase non-receptor type 11. The data set can be described thus: Inhibition of human SHP2 in human NCI-H1975 cells assessed as reduction in ERK phosphorylation by Western blot analysis. The format is cell-based. (In general: In western blotting, separated proteins are transferred to a membrane and probed.)
A short description of data set [12]: Tmax in Sprague-Dawley rat at 5 mg/kg, po and measured upto 24 hrs by LC-MS/MS analysis. Particulars: in vivo. The format is ADME, organism-based.
Data set [13] deals with T1, Tyrosine-protein phosphatase non-receptor type 11. In words: Inhibition of human SHP2 in human NCI-H1975/OSIR cells assessed as reduction in ERK phosphorylation by Western blot analysis. Format: cell-based.
The nature of data set [14]: Half life in Sprague-Dawley rat at 5 mg/kg, po and measured upto 24 hrs by LC-MS/MS analysis. The format is ADME, organism-based. The note with it: in vivo.
Data set [15] is described as follows: Cmax in Sprague-Dawley rat at 5 mg/kg, po and measured upto 24 hrs by LC-MS/MS analysis. The format is ADME, organism-based. Set-up: dose 5 mg/kg, time < 24 hrs, route po. The note with it: in vivo.
Data set [16] can be described thus: AUC (0 to infinity) in Sprague-Dawley rat at 5 mg/kg, po and measured upto 24 hrs by LC-MS/MS analysis. The format is ADME, organism-based. Further details: dose 5 mg/kg, time < 24 hrs, route po. Particulars: in vivo.
Data set [17] addresses Insulin receptor (Homo sapiens) (UniProt P06213). Particulars: dose 1000.0 nM.
Description: Inhibition of INSR (unknown origin) at 1000 nM by KINOMEscan assay relative to control
Data set [18] in a line: Tmax in Sprague-Dawley rat at 5 mg/kg, iv and measured upto 24 hrs by LC-MS/MS analysis. The note with it: in vivo. The format is ADME, organism-based.
The target of data set [19] is Phosphatidylinositol 4-phosphate 3-kinase C2 domain-containing subunit beta (Homo sapiens) (UniProt O00750). The note with it: dose 1000.0 nM.
Description: Inhibition of PIK3C2B (unknown origin) at 1000 nM by KINOMEscan assay relative to control
Data set [20] deals with Serine/threonine-protein kinase 32C (Homo sapiens) (UniProt Q86UX6). Particulars: dose 1000.0 nM.
Description: Inhibition of YANK3 (unknown origin) at 1000 nM by KINOMEscan assay relative to control

Molecules are shown by their SMILES. Bounds are passed on as bounds.

Phosphatidylinositol 4-phosphate 3-kinase C2 domain-containing subunit beta (Homo sapiens), sequence (O00750 whole entry, the tested form may be a part): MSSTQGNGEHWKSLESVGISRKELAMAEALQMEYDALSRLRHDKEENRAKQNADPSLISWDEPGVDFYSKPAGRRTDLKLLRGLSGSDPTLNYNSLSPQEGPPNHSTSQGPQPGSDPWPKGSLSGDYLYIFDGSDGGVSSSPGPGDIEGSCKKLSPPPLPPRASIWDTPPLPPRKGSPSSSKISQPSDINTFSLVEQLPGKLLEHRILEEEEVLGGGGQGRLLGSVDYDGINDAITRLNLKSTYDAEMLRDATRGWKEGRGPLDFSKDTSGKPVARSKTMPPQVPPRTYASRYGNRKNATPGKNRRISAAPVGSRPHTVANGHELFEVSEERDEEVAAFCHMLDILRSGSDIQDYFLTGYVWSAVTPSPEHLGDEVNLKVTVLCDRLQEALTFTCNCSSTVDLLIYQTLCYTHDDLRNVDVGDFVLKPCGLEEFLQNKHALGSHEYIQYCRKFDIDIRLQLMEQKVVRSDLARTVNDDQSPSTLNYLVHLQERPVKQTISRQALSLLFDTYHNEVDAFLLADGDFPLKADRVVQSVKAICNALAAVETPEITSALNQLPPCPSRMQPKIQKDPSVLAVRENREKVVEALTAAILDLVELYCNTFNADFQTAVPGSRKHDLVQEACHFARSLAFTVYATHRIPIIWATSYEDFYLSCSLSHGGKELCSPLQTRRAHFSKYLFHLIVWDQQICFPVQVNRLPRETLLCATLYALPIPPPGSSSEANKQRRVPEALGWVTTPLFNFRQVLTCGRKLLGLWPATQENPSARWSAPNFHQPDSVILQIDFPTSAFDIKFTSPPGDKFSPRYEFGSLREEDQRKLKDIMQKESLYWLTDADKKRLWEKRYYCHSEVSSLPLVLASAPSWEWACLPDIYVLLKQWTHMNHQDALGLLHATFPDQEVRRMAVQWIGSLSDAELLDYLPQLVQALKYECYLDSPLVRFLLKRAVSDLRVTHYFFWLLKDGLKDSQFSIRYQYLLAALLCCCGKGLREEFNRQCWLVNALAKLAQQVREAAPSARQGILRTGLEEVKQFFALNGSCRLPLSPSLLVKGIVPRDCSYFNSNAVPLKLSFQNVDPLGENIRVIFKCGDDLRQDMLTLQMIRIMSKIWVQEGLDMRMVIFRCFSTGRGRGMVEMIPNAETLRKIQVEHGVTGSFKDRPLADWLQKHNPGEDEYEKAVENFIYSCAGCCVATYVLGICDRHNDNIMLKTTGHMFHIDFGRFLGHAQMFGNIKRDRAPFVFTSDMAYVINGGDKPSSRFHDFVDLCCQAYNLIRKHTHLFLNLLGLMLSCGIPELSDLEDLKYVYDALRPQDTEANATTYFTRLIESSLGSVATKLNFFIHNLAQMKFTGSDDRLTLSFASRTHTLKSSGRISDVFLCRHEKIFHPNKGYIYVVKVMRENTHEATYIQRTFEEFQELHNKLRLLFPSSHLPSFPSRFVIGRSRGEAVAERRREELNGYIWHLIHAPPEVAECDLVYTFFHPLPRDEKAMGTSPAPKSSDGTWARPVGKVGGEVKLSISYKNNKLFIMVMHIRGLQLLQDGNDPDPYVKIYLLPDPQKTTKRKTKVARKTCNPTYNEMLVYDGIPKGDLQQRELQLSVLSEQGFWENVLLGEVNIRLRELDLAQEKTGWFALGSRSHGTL
Serine/threonine-protein kinase 32C (Homo sapiens), sequence (Q86UX6 whole entry): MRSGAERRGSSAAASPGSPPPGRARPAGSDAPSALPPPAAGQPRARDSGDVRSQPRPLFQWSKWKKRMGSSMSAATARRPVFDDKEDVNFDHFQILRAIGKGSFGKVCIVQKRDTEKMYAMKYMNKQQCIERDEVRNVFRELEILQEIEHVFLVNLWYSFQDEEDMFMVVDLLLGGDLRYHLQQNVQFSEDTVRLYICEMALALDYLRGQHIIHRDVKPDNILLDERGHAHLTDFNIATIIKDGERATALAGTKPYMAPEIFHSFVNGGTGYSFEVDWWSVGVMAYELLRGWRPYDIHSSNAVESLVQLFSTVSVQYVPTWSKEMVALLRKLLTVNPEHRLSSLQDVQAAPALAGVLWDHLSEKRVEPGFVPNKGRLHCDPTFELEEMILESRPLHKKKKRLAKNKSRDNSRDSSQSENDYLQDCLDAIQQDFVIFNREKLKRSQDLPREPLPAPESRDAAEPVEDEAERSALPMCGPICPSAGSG
Dual specificity tyrosine-phosphorylation-regulated kinase 1B (Homo sapiens), sequence (Q9Y463 whole entry, looked up): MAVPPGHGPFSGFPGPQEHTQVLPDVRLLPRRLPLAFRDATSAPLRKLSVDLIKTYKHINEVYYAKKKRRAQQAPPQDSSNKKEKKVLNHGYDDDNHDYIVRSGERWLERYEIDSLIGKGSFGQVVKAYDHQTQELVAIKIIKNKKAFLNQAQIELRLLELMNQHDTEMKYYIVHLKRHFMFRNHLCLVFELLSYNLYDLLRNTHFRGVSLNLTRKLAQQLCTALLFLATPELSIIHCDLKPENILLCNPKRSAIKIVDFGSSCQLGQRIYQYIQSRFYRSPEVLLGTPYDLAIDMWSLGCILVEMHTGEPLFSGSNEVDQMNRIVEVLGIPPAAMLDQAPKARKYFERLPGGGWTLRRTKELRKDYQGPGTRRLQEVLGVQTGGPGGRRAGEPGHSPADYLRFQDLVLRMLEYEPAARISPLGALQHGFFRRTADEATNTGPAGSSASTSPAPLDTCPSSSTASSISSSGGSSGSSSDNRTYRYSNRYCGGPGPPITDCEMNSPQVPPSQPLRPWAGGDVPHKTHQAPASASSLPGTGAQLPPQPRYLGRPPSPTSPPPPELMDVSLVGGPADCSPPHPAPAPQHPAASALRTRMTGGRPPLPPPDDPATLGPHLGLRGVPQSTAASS
Insulin receptor (Homo sapiens), sequence (P06213 28-758 limits assumed): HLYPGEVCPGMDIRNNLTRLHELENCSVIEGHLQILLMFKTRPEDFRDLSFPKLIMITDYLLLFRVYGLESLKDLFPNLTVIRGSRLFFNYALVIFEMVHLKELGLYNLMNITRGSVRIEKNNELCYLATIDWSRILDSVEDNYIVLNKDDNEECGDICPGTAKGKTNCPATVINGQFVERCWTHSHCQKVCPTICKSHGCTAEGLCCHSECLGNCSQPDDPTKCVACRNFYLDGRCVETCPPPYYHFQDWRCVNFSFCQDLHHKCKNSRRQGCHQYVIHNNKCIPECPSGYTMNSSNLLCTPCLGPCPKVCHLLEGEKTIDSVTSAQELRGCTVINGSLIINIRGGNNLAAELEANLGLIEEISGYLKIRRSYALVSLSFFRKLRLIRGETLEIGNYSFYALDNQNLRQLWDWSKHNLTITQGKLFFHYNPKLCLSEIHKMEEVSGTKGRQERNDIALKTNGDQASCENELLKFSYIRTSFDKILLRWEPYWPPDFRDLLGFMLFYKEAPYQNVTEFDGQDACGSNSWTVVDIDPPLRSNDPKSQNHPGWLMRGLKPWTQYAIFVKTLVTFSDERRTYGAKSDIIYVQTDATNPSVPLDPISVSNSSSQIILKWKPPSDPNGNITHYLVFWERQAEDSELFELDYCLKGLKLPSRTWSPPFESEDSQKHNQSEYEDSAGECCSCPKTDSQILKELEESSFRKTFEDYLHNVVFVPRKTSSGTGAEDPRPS
Insulin receptor (Homo sapiens), sequence (P06213 763-1382 limits assumed): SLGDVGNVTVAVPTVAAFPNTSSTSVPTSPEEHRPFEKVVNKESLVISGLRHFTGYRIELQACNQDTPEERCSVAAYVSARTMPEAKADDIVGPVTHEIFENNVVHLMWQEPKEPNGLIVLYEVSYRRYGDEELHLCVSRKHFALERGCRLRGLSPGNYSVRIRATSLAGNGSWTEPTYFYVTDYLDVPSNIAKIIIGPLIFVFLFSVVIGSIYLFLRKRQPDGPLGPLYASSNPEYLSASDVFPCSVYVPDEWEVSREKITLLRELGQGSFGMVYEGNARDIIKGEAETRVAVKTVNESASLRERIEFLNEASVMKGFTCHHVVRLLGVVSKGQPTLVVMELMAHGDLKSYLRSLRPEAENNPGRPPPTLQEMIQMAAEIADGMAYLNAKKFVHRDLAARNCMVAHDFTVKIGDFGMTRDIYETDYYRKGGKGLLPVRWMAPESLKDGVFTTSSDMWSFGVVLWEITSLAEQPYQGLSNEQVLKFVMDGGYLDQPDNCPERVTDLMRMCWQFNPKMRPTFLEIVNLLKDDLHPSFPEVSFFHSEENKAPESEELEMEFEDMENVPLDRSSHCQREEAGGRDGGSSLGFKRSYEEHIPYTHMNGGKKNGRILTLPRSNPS

In the case of `Nc1nc(N2CCOCC2)ncc1C(=O)Nc1ccccc1`, the 50% inhibitory concentration (IC50) in data set [1] stood at 9.5 µM.
For `CC1(N)CCN(c2ncc(C(=O)Nc3ccc([N+](=O)[O-])cc3)c(N)n2)CC1`, the IC50 in [1] was determined as 2 µM.
On the same count and under the same terms, the same measure for `CC1(N)CCN(c2ncc(C(=O)Nc3ccc(Cl)c(Cl)c3)c(N)n2)CC1`: 0.25 µM; for `CC1(N)CCN(c2ncc(C(=O)Nc3ccccn3)c(N)n2)CC1`: 0.8 µM; for `Nc1nc(N2CCN(c3ccccn3)CC2)ncc1C(=O)Nc1ccccc1`: over 100 µM.
Compound `COc1ccc(NC(=O)c2cnc(N3CCC(C)(N)CC3)nc2N)cc1OC` displayed an IC50 in [1] of 2.3 µM.
Take `Nc1nc(N2CCSCC2)ncc1C(=O)Nc1ccccc1`: in data set [1], the half-inhibitory concentration (IC50) is 5.6 µM.
Same read-out and setting: for `Nc1nc(N2CCN(c3ccccc3)CC2)ncc1C(=O)Nc1ccccc1` the value was over 100 µM; for `CC(=O)N1CCN(c2ncc(C(=O)Nc3ccccc3)c(N)n2)CC1`, 6.7 µM; for `CCN1CCN(c2ncc(C(=O)Nc3ccccc3)c(N)n2)CC1`, 10.2 µM.
In data set [1], `COc1cccc(OC)c1NC(=O)c1cnc(N2CCC(C)(N)CC2)nc1N` displayed a half-maximal inhibitory concentration (IC50) of 12.5 µM.
The same measure, in the same setting: the same measure for `COc1ccc2nc(C)cc(Nc3ccccc3OC)c2c1`: 13.5 µM.
Same read-out and setting: for `CCOC(=O)N1CCN(c2ncc(C(=O)Nc3ccccc3)c(N)n2)CC1` the value was 8.5 µM; for `COc1ccccc1CN1CCCC(c2[nH]ccc2C(N)=O)C1` (stereo unspecified), 19 µM.
Still for that read-out and setting: for `Nc1nc(N2CCc3ccccc3C2)ncc1C(=O)Nc1ccccc1` the value was 100 µM; for `CC(C)NC(=O)CN1CCN(c2ncc(C(=O)Nc3ccccc3)c(N)n2)CC1`, 5.6 µM.
As for `COc1ccc(NC(=O)c2cnc(N3CCC(C)(N)CC3)nc2N)cc1`, the IC50 in data set [1] came to 1.9 µM.
Same read-out and setting: the same measure for `Nc1nc(N2CCC3(CC2)OCCO3)ncc1C(=O)Nc1ccccc1`: 12.8 µM; for `CC1(N)CCN(c2ncc(C(=O)Nc3ccc4c(c3)Cc3ccccc3-4)c(N)n2)CC1`: 100 µM.
As for `CC1(N)CCN(c2ncc(C(=O)Nc3cc(Cl)cc(Cl)c3)c(N)n2)CC1`, the IC50 in [1] is 3.4 µM.
The same measure, in the same setting: for `CC1(N)CCN(c2ncc(C(=O)Nc3cccc(-c4ccccc4)c3)c(N)n2)CC1` the value was over 100 µM; for `Nc1nc(N2CCN(C(=O)c3ccco3)CC2)ncc1C(=O)Nc1ccccc1`, 100 µM; for `Nc1nc(N2CCN(C3CCCCC3)CC2)ncc1C(=O)Nc1ccccc1`, 100 µM.
On the same count and under the same terms, the same measure for `CC1(N)CCN(c2ncc(C(=O)Nc3cccc4ccccc34)c(N)n2)CC1`: 100 µM.
On the same count and under the same terms, the same measure for `CCCCN(C)c1ncc(C(=O)Nc2ccccc2)c(N)n1`: 25 µM.
As for `Nc1nc(N2CCCC2)ncc1C(=O)Nc1ccccc1`, 50 µM corresponded to half-maximal inhibition in data set [1] (IC50).
On the same count and under the same terms, for `CCCN1CCN(c2ncc(C(=O)Nc3ccccc3)c(N)n2)CC1` the value was 11.5 µM.
Still for that read-out and setting: the same measure for `CC1(N)CCN(c2ncc(C(=O)Nc3ccccc3)c(N)n2)CC1`: 1.4 µM; for `CC(C)(C)OC(=O)N1CCN(c2ncc(C(=O)Nc3ccccc3)c(N)n2)CC1`: 35 µM; for `CC1(N)CCN(c2ncc(C(=O)NCc3ccccn3)c(N)n2)CC1`: 8.1 µM.
In data set [1], `CCOC(=O)C1CCN(c2ncc(C(=O)Nc3ccccc3)c(N)n2)CC1` had a half-maximal inhibitory concentration (IC50) of 2.1 µM.
On to `CC1(N)CCN(c2ncc(C(=O)Nc3ccc4ccccc4c3)c(N)n2)CC1`, for which the 50% inhibitory concentration (IC50) in [1] came out at 8 µM.
For the compound `CC(C)N1CCN(c2ncc(C(=O)Nc3ccccc3)c(N)n2)CC1`, the 50% inhibitory concentration (IC50) in data set [1] is 9.3 µM.
Compound `CC1(N)CCN(c2ncc(C(=O)Nc3ccc(F)cc3)c(N)n2)CC1` displayed an IC50 in [1] of 0.62 µM.
Same read-out and setting: the same measure for `COc1ccc(N2CCN(c3ncc(C(=O)Nc4ccccc4)c(N)n3)CC2)cc1`: over 100 µM.
As to `CC1(N)CCN(c2ncc(C(=O)Nc3cccnc3)c(N)n2)CC1`, the inhibition was 50% in [2]; 64% in data set [5]; over 35% in [8]; 69% in data set [17]; over 35% in data set [19]; 54% in data set [20]. Also, the values for the area under the curve AUC(0-inf) in [3] and in data set [16] were 1880 ng·h/mL and 1040 ng·h/mL, respectively. Moreover, the peak concentration (Cmax) in data set [4] was found to be 854 ng/mL; in [15], 101 ng/mL. In data set [6], the bioavailability came out at 55.1%. The same compound had a clearance in data set [7] of 44.8 mL/min/kg. The half-life is 5.31 h in data set [9] and 4.77 h in data set [14]. The Vd in data set [10] is 14 L/kg. Also, the IC50 in [11] was determined as 0.59 µM; in data set [13], 0.63 µM; in data set [1] it was 0.089 µM. Besides, the Tmax in [12] was found to be 2.17 h; in data set [18] it was 4.98 min.
`CN(Cc1ccccc1)c1ncc(C(=O)Nc2ccccc2)c(N)n1` had an IC50 in data set [1] of over 100 µM.
